Tests used:
Assay in all cases: AUC of viability dose-response curve (% viability x log10 dose units); higher = less sensitive
Details in all cases: 48 h
SEM cells = test system: SEM cells
Method in brief: (§1)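 Viability of medium-adapted leukemia cells was measured by CellTiter-Glo One luminescence after 48 h at 37°C with library compounds in DMSO. Doses were 11 threefold steps from 47 μM to 0.79 nM, in 1536-well plates at 500 or 1000 cells/well. Signals were normalised per plate to DMSO and cell-free wells and fitted with a four-parameter log-logistic model on log10 dose. Area under the curve was integrated by trapezoidal rule, with curves exceeding full viability scaled and failed quality-control curves removed.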

NOMO1 = test system: NOMO1
Method in brief: as §1

P12-Ichikawa = test system: P12-Ichikawa
Method in brief: as §1

[1] = RPMI 5 mM glucose + 10% dialyzed FBS

| SMILES | AUC of viability dose-response curve (SEM cells; HPLM + 10% dialyzed FBS) | AUC of viability dose-response curve (SEM cells; RPMI 5 mM glucose + 10% FBS) | AUC of viability dose-response curve (SEM cells; [1]) | AUC of viability dose-response curve (NOMO1; HPLM + 10% dialyzed FBS) | AUC of viability dose-response curve (NOMO1; RPMI 5 mM glucose + 10% FBS) | AUC of viability dose-response curve (NOMO1; [1]) | AUC of viability dose-response curve (P12-Ichikawa; HPLM + 10% dialyzed FBS) | AUC of viability dose-response curve (P12-Ichikawa; RPMI 5 mM glucose + 10% FBS) | AUC of viability dose-response curve (P12-Ichikawa; [1]) |
| --- | --- | --- | --- | --- | --- | --- | --- | --- | --- |
| C=CCc1cccc(/C=N/NC(=O)CN2CCN(Cc3ccccc3)CC2)c1O | 399 | 411 | 378 | 419 | 448 | 433 | 420 | 424 | 417 |
| COc1cccc([C@@H](C)NCCCc2ccccc2Cl)c1 | 463 | 436 | 472 | 461 | 437 | 429 | 440 | 435 | 432 |
| Cc1cnc(C(=O)O)c[n+]1[O-] | 450 | 416 | 475 | 400 | 454 | 447 | 460 | 468 | 441 |
| COC(=O)C1C2CC3c4[nH]c5cc(OC)ccc5c4CCN3CC2CC(OC(=O)c2cc(OC)c(OC)c(OC)c2)C1OC (centres undefined) | 462 | 459 | 456 | 465 | 454 | 468 | 467 | 471 | 445 |
| CCCCCCCCCC(=O)N[C@@H](Cc1c[nH]c2ccccc12)C(=O)N[C@H](CC(N)=O)C(=O)N[C@@H](CC(=O)O)C(=O)N[C@@H]1C(=O)NCC(=O)N[C@@H](CCCN)C(=O)N[C@@H](CC(=O)O)C(=O)N[C@H](C)C(=O)N[C@@H](CC(=O)O)C(=O)NCC(=O)N[C@H](CO)C(=O)N[C@@H]([C@@H](C)CC(=O)O)C(=O)N[C@@H](CC(=O)c2ccccc2N)C(=O)O[C@@H]1C | 458 | 455 | 469 | 459 | 466 | 469 | 459 | 454 | 460 |
| CCCCC(C=O)NC(=O)C(CC(C)C)NC(=O)OCc1ccccc1 (centres undefined) | 430 | 439 | 393 | 409 | 410 | 424 | 422 | 393 | 377 |
| Cc1cc(C(=O)N2CCN(c3cccc(Cl)c3)CC2)n(-c2ccccc2)n1 | 354 | 368 | 357 | 364 | 389 | 375 | 349 | 373 | 374 |
| CN(C)CC[C@H](c1ccc(Cl)cc1)c1ccccn1 | 376 | 438 | 414 | 378 | 382 | 412 | 413 | 388 | 379 |
| [O-]C(=O)C1=C(C(=C(Cl)C(=C1Cl)Cl)Cl)C/2=C/3\C=C(I)/C(=O)/C(=C3OC4=C2C=C(I)C(=C4I)[O-])I | 466 | 464 | 462 | 474 | 451 | 457 | 446 | 450 | 445 |
| COC1=C2C[C@@H](C)C[C@H](OC)[C@H](O)[C@@H](C)/C=C(\C)[C@H](OC(N)=O)[C@@H](OC)/C=C/C=C(\C)C(=O)NC(=CC1=O)C2=O | 402 | 396 | 395 | 430 | 438 | 440 | 416 | 410 | 399 |
| CC[C@]12\C=C/CN3CC[C@]4([C@@H](N(C)C5=CC(=C(C=C45)[C@]6(C[C@H]7C[C@H](CN(C7)CC8=C6[NH]C9=C8C=CC=C9)C(C)(F)F)C(=O)OC)OC)[C@](O)([C@@H]1OC(C)=O)C(=O)OC)[C@H]23 | 215 | 179 | 196 | 256 | 221 | 250 | 189 | 176 | 212 |
| c1ccc(CNc2nc(N3CCOc4ccccc43)nc3c2CCCC3)cc1 | 455 | 428 | 451 | 468 | 473 | 470 | 461 | 476 | 472 |
| NC(=O)c1cccc2nc(-c3ccc([C@H]4CCCN4)cc3F)[nH]c12 | 398 | 363 | 362 | 464 | 472 | 466 | 463 | 466 | 465 |
| COc1ccc(Nc2nccc(NCCO)n2)cc1 | 331 | 376 | 375 | – | – | – | 395 | 386 | 377 |
| COc1ncnc(N[S+](=O)([O-])c2ccc(N)cc2)c1OC | – | – | – | 348 | 394 | 404 | 341 | 320 | 316 |
| CN(C)c1nc(Cc2ccc(NC(=O)c3ccc4ccccc4c3)cc2)nc(Cl)c1CC(=O)O | 461 | 447 | 455 | 377 | 401 | 392 | 440 | 427 | 434 |
| CN1C(=O)C[C@H](C(=O)N[C@@H](Cc2cnc[nH]2)C(=O)N2CCC[C@H]2C(N)=O)NC1=O | 456 | 435 | 459 | 462 | 463 | 435 | 462 | 464 | 470 |
| O=C(Oc1ccc([N+](=O)[O-])cc1)N1CCC(C(O)(c2ccc3c(c2)OCO3)c2ccc3c(c2)OCO3)CC1 | 396 | 379 | 418 | – | – | – | 439 | 432 | 411 |
| Nc1cccc2c1CN([C@H]1CCC(=O)NC1=O)C2=O | 427 | 390 | 450 | 462 | 428 | 466 | 451 | 448 | 449 |
| CC1(N2CCC(n3c([C@@H]4CCCNC4)nc4ccccc43)CC2)CCCCCCC1 | 430 | 467 | 471 | 420 | 460 | 433 | 456 | 458 | 456 |
| COc1cc2c(Nc3ccc(Br)cc3F)ncnc2cc1OCC1CCN(C)CC1 | – | – | – | 373 | 373 | 380 | 419 | 396 | 398 |
| CC[C@@]1(O)C(=O)OC\C2=C1\C=C\3N(CC4=C3N=C5C=CC=CC5=C4)C2=O | 190 | 158 | 165 | 248 | 241 | 246 | 172 | 164 | 161 |
| Oc1cccc(-c2nc(N3CCOCC3)c3oc4ncccc4c3n2)c1 | 337 | 302 | 312 | 464 | 466 | 459 | 449 | 401 | 430 |

| SMILES | AUC of viability dose-response curve (SEM cells; HPLM + 10% dialyzed FBS) | AUC of viability dose-response curve (SEM cells; RPMI 5 mM glucose + 10% FBS) | AUC of viability dose-response curve (SEM cells; [1]) | AUC of viability dose-response curve (NOMO1; HPLM + 10% dialyzed FBS) | AUC of viability dose-response curve (NOMO1; RPMI 5 mM glucose + 10% FBS) | AUC of viability dose-response curve (NOMO1; [1]) | AUC of viability dose-response curve (P12-Ichikawa; HPLM + 10% dialyzed FBS) | AUC of viability dose-response curve (P12-Ichikawa; RPMI 5 mM glucose + 10% FBS) | AUC of viability dose-response curve (P12-Ichikawa; [1]) |
| --- | --- | --- | --- | --- | --- | --- | --- | --- | --- |
| CN(C)CCN(C)C(=O)c1ccc(NC(=O)Nc2ccc(-c3nc(N4CCOCC4)c4ccn(CC(F)(F)F)c4n3)cc2)cc1 | 339 | 325 | 341 | 327 | 393 | 371 | 417 | 359 | 360 |
| O=C(c1ccc(F)c(F)c1Nc1ccc(I)cc1F)N1CC(O)([C@@H]2CCCCN2)C1 | 410 | 434 | 425 | 305 | 292 | 304 | 410 | 403 | 419 |
| COc1cc([C@H]2Oc3cc([C@H]4Oc5cc(O)cc(O)c5C(=O)[C@@H]4O)ccc3O[C@@H]2CO)ccc1O | 455 | 473 | 467 | 470 | 465 | 452 | 464 | 446 | 456 |
| O=C(Nc1ncc(SCCN2CCCC2)s1)[C@]1(c2ccc([S+](=O)([O-])C3CC3)cc2)C[C@H]1C1CCCCC1 | 390 | 461 | 420 | 428 | 451 | 446 | 455 | 459 | 445 |
| CC1=C(CC(=O)O)c2cc(F)ccc2/C1=C\c1ccc([S+](C)[O-])cc1 (centres undefined) | 450 | 422 | 430 | 448 | 453 | 445 | 458 | 451 | 449 |
| COc1ccc(C2Sc3ccccc3N(CCN(C)C)C(=O)C2OC(C)=O)cc1 (centres undefined) | 473 | 469 | 474 | 469 | 463 | 460 | 467 | 468 | 445 |
| N[S+](=O)([O-])c1cccc2c1C(=O)c1cccc(O)c1C2=O | 343 | 295 | 278 | 434 | 452 | 443 | 439 | 451 | 447 |
| C=CC(=O)Nc1cccc(Nc2nc(NC3CCC(N(C)C)CC3)nc3c2ncn3C(C)C)c1 (centres undefined) | 319 | 340 | 320 | 348 | 361 | 350 | 366 | 366 | 377 |
| ClC1=CC\2=C(OC3=C(C=CC=C3)\N=C2N4CCNCC4)C=C1 | 466 | 437 | 467 | 450 | 434 | 437 | 468 | 438 | 462 |
| C[S+](=O)([O-])c1ccc(-c2cnc(N)c(C(=O)Nc3ccccc3)n2)cc1 | 413 | 423 | 408 | 435 | 462 | 455 | 462 | 453 | 449 |
| CN1\C(=C(\O)C2=C(C=CC=C2)[S+]1([O-])=O)C(=O)NC3=CC=CC=N3 | – | – | – | 422 | 428 | 461 | 397 | 400 | 425 |
| O=C\1N(N\C=C1[N]2C=CN=N2)C3=NC=NC(=C3)N4CCOCC4 | – | – | – | 221 | 210 | 222 | 211 | 225 | 248 |
| COC/1=C/C=C2\C(=C/C1=O)[C@H](CCC3=CC(=C(OC)C(=C23)OC)OC)NC(C)=O | 80.3 | 49.8 | 54.6 | – | – | – | 54.5 | 46.5 | 64.7 |
| CCC(=C/[C@H](C)C/C=C/C(C)=C/[C@@H](C)C(=O)[C@@H](C)[C@H](O)[C@@H](C)C/C(C)=C/C(=O)O)/C=C/[C@@H]1OC(=O)C=C[C@@H]1C | – | – | – | 351 | 365 | 355 | 361 | 355 | 359 |
| CC(C)C[C@H](NC(=O)CNC(=O)c1cc(Cl)ccc1Cl)B(O)O | 190 | 190 | 177 | – | – | – | – | – | – |
| CN1\N=C(N)/C2=C[N]([C@@H]3O[C@H](CO[P](O)(O)=O)[C@@H](O)[C@H]3O)C4=C2C1=NC=N4 | – | – | – | 341 | 393 | 347 | 353 | 329 | 346 |
| CNC[C@H](O)c1cccc(O)c1 | 410 | 388 | 417 | – | – | – | – | – | – |
| Nc1nnc(-c2cccc(Cl)c2Cl)c(N)n1 | 425 | 402 | 418 | – | – | – | – | – | – |
| Cn1c(=O)n(-c2ccc(C(C)(C)C#N)cc2)c2c3cc(-c4cnc5ccccc5c4)ccc3ncc21 | – | – | – | 344 | 354 | 315 | 337 | 315 | 325 |
| CCC(=O)N[C@H]1CC[C@H](C(=O)N(C)c2ccc(-c3nc4ccccc4o3)cc2)C1 | – | – | – | 454 | 449 | 415 | 477 | 458 | 453 |
| CC1(C)CNc2cc(NC(=O)c3cccnc3NCc3ccncc3)ccc21 | – | – | – | 419 | 468 | 470 | 461 | 446 | 455 |
| CC[C@H](NC(=O)[C@H](C)NC)C(=O)N1C[C@@H](O)C[C@H]1Cc1c(-c2[nH]c3cc(F)ccc3c2C[C@@H]2C[C@H](O)CN2C(=O)[C@H](CC)NC(=O)[C@H](C)NC)[nH]c2cc(F)ccc12 | 469 | 442 | 437 | 347 | 323 | 362 | – | – | – |
| CC(C)c1cc(C(=O)N2Cc3ccc(CN4CCN(C)CC4)cc3C2)c(O)cc1O | – | – | – | 320 | 317 | 323 | 374 | 342 | 348 |
